Converted amounts (≈) assume the structure as drawn. Where two headings read alike, the source gives them in different places.

Type in all cases: cell-based
The subject of experiment [1] is S. aureus ATCC 29213 (MSSA). As to the kind of experiment: Broth dilution MIC, S. aureus ATCC 29213. Conditions: Staphylococcus aureus. Background: In broth dilution the organism is exposed to a series of concentrations in liquid medium.
Experiment [2] relates to E. faecalis ATCC 29212 (VRE). Nature of the experiment: Broth dilution MIC, E. faecalis ATCC 29212.
A further experiment has as its system E. faecium CT-26. Nature of the experiment: Broth dilution MIC, E. faecium CT-26. The following applies: Enterococcus faecium.
The subject of the next experiment is K. pneumoniae ATCC 51503. Nature of the experiment: Broth dilution MIC, K. pneumoniae ATCC 51503. The following applies: Klebsiella pneumoniae.
A further experiment concerns C. albicans ATCC 14053. Nature of the experiment: Broth dilution MIC, C. albicans ATCC 14053. Conditions: Candida albicans, ATCC14053; Table 1; range 64 down to 0.12 μg/ml. Put shortly:
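Broth microdilution per NCCLS M7-A6, 1:2 serial dilutions from a 256 μg/ml working stock. C. albicans inoculum set to 70–75% transmittance at 530 nm, diluted 1/500 in RPMI+MOPS, incubated 18 h at 35° C; growth read at 650 nm and confirmed visually.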

Experiment [3] deals with Mycobacterium tuberculosis. As to the kind of experiment: Time kill curve, liquid culture, M. tuberculosis. Conditions: 1.9 micromolar; vs DMSO control; FIG. 1 left-hand graph. As for the experimental part:
Either Mycobacterium tuberculosis or Mycobacterium smegmatis liquid cultures were incubated with SKI-1 (356313) at a concentration of 1.9 micromolar and viable bacterial titer was determined over the time period indicated by culturing serial dilutions on agar media. Control cultures were treated with an equivalent volume of DMSO.

In a further experiment the test system is Mycobacterium smegmatis. Nature of the experiment: Time kill curve, liquid culture, M. smegmatis. The following applies: 1.9 micromolar; vs DMSO control; FIG. 1 right-hand graph.

`c1cc(C2=NCCN2)ccc1Nc1ccc(-c2cc3ccc(C4=NCCN4)cc3[nH]2)cc1` [SKI-1]: the MIC in experiment [1] (Table 3, starting at 4 μg/ml, read-out: MIC S. aureus ATCC 29213) was 0.25 µg/mL (≈ 0.595 µM); in experiment [1] (Table 1, range 64 down to 0.12 μg/ml, read-out: MIC S. aureus ATCC 29213), 0.25 µg/mL (≈ 0.595 µM); in experiment [1] (Table 2, broth dilution MIC in ug/ml, read-out: MIC S aureus ATCC 29213 MSSA), 0.25 µg/mL (≈ 0.595 µM); in experiment [1] (Table 4, broth dilution MIC according to CLSI standards (NAEJA), read-out: MIC MSSA S. aureus ATCC 29213) it was 0.25 µg/mL (≈ 0.595 µM); in experiment [2] (Enterococcus faecalis, Table 1, range 64 down to 0.12 μg/ml, read-out: MIC E. faecalis ATCC 29212) it was 0.25 µg/mL (≈ 0.595 µM); in experiment [2] (Enterococcus faecalis, Table 4, broth dilution MIC according to CLSI standards (NAEJA), read-out: MIC VRE E. faecalis ATCC 29212) it was 0.12 µg/mL (≈ 0.285 µM). For the same molecule, the MIC in experiment [2] (Table 2, broth dilution MIC in ug/ml, read-out: MIC E faecalis ATCC 29212 VRE) was 0.25 µg/mL (≈ 0.595 µM); in the experiment on E. faecium CT-26 (CT26, Table 1, range 64 down to 0.12 μg/ml, read-out: MIC E. faecium CT-26) it was at most 0.12 µg/mL; with E. faecium CT-26 (CT26, Table 2, broth dilution MIC in ug/ml, read-out: MIC E faecium CT-25) it was 0.06 µg/mL (≈ 0.143 µM); in the experiment on E. faecium CT-26 (CT26, Table 3, starting at 4 μg/ml, read-out: MIC E. faecium CT-26), 0.06 µg/mL (≈ 0.143 µM); in the experiment with E. faecium CT-26 (CT26, Table 4, broth dilution MIC according to CLSI standards (NAEJA), read-out: MIC E. faecium CT-26), 0.015 µg/mL (≈ 0.0357 µM); with K. pneumoniae ATCC 51503 (ATCC51503, Table 1, range 64 down to 0.12 μg/ml, read-out: MIC K. pneumoniae ATCC 51503) it was 2 µg/mL (≈ 4.76 µM). Moreover, the minimal inhibitory concentration (MIC) was 2 µg/mL (≈ 4.76 µM) with K. pneumoniae ATCC 51503 (ATCC51503, Table 2, broth dilution MIC in ug/ml, read-out: MIC K pneumonia ATCC 51503); 1 µg/mL (≈ 2.38 µM) in the experiment on K. pneumoniae ATCC 51503 (ATCC51503, Table 4, broth dilution MIC according to CLSI standards (NAEJA), read-out: MIC K. pneumoniae ATCC 51503); 1 µg/mL (≈ 2.38 µM) in the experiment on C. albicans ATCC 14053. For the same molecule, the “MIC E. faecalis ATCC 29212” value in experiment [2] (Table 3, starting at 4 μg/ml) was 0.25 µg/mL (≈ 0.595 µM). Also, the “Viable bacterial titer over time (time kill curve)” value (in experiment [3]; in the experiment on Mycobacterium smegmatis) was “bactericidal” each time.

A word on the MIC: it is the least concentration at which growth counts as inhibited.

The values are drawn from patent US20150291565A1, “INDOLE COMPOUNDS AND THEIR USE AS ANTIMICROBIALS” (Memorial Sloan-Kettering Cancer Center, priority 2012, published 2015).
